Source: patent publication US8178535B2, “Substituted sulfonamide compounds having bradykinin 1 receptor activity and use thereof as medicaments” (Gruenenthal GmbH, priority 2008, dated 2012)
Each block holds one compound with its values, some of them ahead of it.

Columns and labels:
[1] = biological target: T1, human B1R receptor (hB1R) (Homo sapiens, UniProt P46663); experiment: FLIPR Ca2+ assay (Fluo-4) on CHO K1 cells stably transfected with the human B1R gene; assay type: cell-based; settings: CHO-K1; test substance 10 μM; agonist Lys-Des-Arg9-bradykinin 0.5 nM; % inhibition compared to the maximum achievable inhibition
T1 construct: host or cells: CHO K1 cells
T1 sequence (P46663 1-353): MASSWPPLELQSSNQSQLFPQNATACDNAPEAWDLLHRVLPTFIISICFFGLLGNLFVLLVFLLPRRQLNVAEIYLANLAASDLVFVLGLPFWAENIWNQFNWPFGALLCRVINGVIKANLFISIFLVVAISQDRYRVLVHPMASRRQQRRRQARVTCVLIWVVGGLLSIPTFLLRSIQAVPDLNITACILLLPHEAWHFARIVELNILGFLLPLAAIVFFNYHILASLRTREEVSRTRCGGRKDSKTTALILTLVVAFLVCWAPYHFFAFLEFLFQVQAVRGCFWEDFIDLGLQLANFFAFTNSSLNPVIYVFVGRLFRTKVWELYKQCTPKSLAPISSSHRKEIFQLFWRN
Description: (§1) The agonistic or antagonistic action of compounds can be quantified on the bradykinin 1 receptor (B1R) of humans and rats with ectopically expressing cell lines (CHO K1 cells) and with the aid of a Ca^2+-sensitive dye (Fluo-4) in the fluorescent imaging plate reader (FLIPR). The figure in percent activation refers to the Ca^2+ signal after addition of Lys-Des-Arg^9-bradykinin (0.5 nM) and Des-Arg^9-bradykinin (100 nM). Antagonists result in a suppression of the Ca^2+ inflow after the addition of the agonist. Percent inhibition values are given in comparison to the maximum achievable inhibition. The compounds according to the invention act, for example, on the B1R which is implicated in various disease states. This means that the compounds of the invention are useful as pharmaceutically active substances in medicaments for the treatment and/or inhibition of such disease states.
(§2) The agonistic or antagonistic action of substances can be determined on the bradykinin 1 receptor (B1R) of humans and rats by means of the following assay. According to this assay the Ca^2+ inflow through the channel is quantified by means of a Ca^2+-sensitive dye (Fluo-4 type, Molecular Probes Europe BV, Leiden, Netherlands), in a Fluorescent Imaging Plate Reader (FLIPR, Molecular Devices, Sunnyvale, USA).
(§3) Chinese hamster ovary cells (CHO K1 cells) are used, which are stably transfected with the human B1R gene (hB1R cells, Euroscreen s.a., Gosselies, Belgium), or with the B1R gene of rats (rB1R cells, Axxam, Milan, Italy). For functional investigations these cells are plated out on black 96-well plates with a clear floor (BD Biosciences, Heidelberg, Germany) in a density of 20,000/25,000 cells/well. The cells are incubated overnight with 10 vol. % FBS (foetal bovine serum, Gibco Invitrogen GmbH, Karlsruhe, Germany) at 37° C. and 5% CO2 in a culture medium (hB1R cells: Nutrient Mixture Ham's F12, Gibco Invitrogen GmbH, Karlsruhe, Germany; rB1R cells: D-MEM/F12, Gibco Invitrogen GmbH, Karlsruhe, Germany). The following day the cells are charged for 60 minutes at 37° C. with 2.13 μM Fluo-4 (Molecular Probes Europe BV, Leiden, Netherlands) in HBSS buffer (Hank's buffered saline solution, Gibco Invitrogen GmbH, Karlsruhe, Germany) together with […] (Sigma-Aldrich, Taufkirchen, Germany) and 10 mM HEPES (Sigma-Aldrich, Taufkirchen, Germany).
(§4) The plates are then washed twice with HBSS buffer and HBSS buffer is added which additionally contains 0.1% BSA (bovine serum albumin; Sigma-Aldrich, Taufkirchen, Germany), 5.6 mM glucose and 0.05% gelatin (Merck KGaA, Darmstadt, Germany). After further incubation for 20 minutes at room temperature the plates are used for the Ca^2+ measurement in the FLIPR. The Ca^2+-dependent fluorescence is measured both before and after the addition of substances (λex=488 nm, λem=540 nm). The quantification is carried out by measuring the highest fluorescence intensity (FC, fluorescence counts) over time.
(§5) The FLIPR protocol consists of two substance additions. First, test substances (10 μM) are pipetted onto the cells and the Ca^2+ inflow is compared with the control (hB1R: Lys-Des-Arg9-bradykinin 0.5 nM; rB1R: Des-Arg9-bradykinin 100 nM). This gives the result in percent activation referred to the Ca^2+ signal after addition of Lys-Des-Arg9-bradykinin (0.5 nM), bzw. Des-Arg9-bradykinin (100 nM). After 10 minutes' incubation 0.5 nM Lys-Des-Arg9-bradykinin (hB1R) and 100 nM Des-Arg^9-bradykinin (rB1R) are applied and the inflow of Ca^2+ is likewise determined. Antagonists lead to a suppression of the Ca^2+ inflow. The percent inhibition compared to the maximum achievable inhibition is calculated. The compounds show a good activity on both human and rat receptors.
(§6) The agonistic and antagonistic action of the compounds according to the invention on the bradykinin 1 receptor (B1R) of humans and rats were determined as described above. Antagonists lead to a suppression of the Ca^2+ inflow. […]

[2] = biological target: T2, B1R receptor of rats (rB1R) (Rattus norvegicus, UniProt P97583); experiment: FLIPR Ca2+ assay (Fluo-4) on CHO K1 cells stably transfected with the B1R gene of rats; assay type: cell-based; settings: CHO-K1; test substance 10 μM; agonist Des-Arg9-bradykinin 100 nM; % inhibition compared to the maximum achievable inhibition
T2 construct: host or cells: CHO K1 cells
T2 sequence (P97583 1-337): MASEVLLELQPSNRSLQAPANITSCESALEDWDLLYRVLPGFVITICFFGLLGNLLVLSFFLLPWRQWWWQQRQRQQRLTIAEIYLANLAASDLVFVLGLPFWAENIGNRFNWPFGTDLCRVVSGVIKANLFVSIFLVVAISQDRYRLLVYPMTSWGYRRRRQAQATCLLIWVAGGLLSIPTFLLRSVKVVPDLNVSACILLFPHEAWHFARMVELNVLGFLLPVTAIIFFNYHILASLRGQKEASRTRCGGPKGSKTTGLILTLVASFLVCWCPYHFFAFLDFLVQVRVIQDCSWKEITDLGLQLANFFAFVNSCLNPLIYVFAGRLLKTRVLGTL
Description: as §1, §2, §3, §4, §5, §6

inhibition at 10 µM [1]: 66% | inhibition at 10 µM [2]: 51%
Structure (SMILES): COc1cc(C)c(S(=O)(=O)N2CCCCC2CCC(=O)N2CCn3cc(Cc4ccncc4)nc3C2)c(C)c1 (centres unmarked) [(121), 3-(1-(4-Methoxy-2,6-dimethylphenylsulfonyl)piperidin-2-yl)-1-(2-(pyridin-4-ylmethyl)-5,6-dihydroimidazo[1,2-a]pyrazin-7(8H)-yl)propan-1-one]

inhibition at 10 µM [1]: 98% | inhibition at 10 µM [2]: 102%
Structure (SMILES): COc1cc(C)c(S(=O)(=O)N2CCCCC2CCCC(=O)N2CCn3cc(CCc4ccncc4)nc3C2)c(C)c1 (centres unmarked) [(118), 4-(1-(4-Methoxy-2,6-dimethylphenylsulfonyl)piperidin-2-yl)-1-(2-(2-(pyridin-4-yl)ethyl)-5,6-dihydroimidazo[1,2-a]pyrazin-7(8H)-yl)butan-1-one]

inhibition at 10 µM [1]: 100% | inhibition at 10 µM [2]: 98%
Structure (SMILES): COc1cc(C)c(S(=O)(=O)N2CCCCC2COCC(=O)N2CCn3cc(CCc4ccncc4)nc3C2)c(C)c1 (centres unmarked) [(115), 2-((1-(4-Methoxy-2,6-dimethylphenylsulfonyl)piperidin-2-yl)methoxy)-1-(2-(2-(pyridin-4-yl)ethyl)-5,6-dihydroimidazo[1,2-a]pyrazin-7(8H)-yl)ethanone]

inhibition at 10 µM [1]: 84% | inhibition at 10 µM [2]: 101%
Structure (SMILES): COc1cc(C)c(S(=O)(=O)N2CCCCC2CCCC(=O)N2CCn3c(ccc3-c3ccncc3)C2)c(C)c1 (centres unmarked) [(110), 4-(1-(4-Methoxy-2,6-dimethylphenylsulfonyl)piperidin-2-yl)-1-(6-(pyridin-4-yl)-3,4-dihydropyrrolo[1,2-a]pyrazin-2(1H)-yl)butan-1-one]

inhibition at 10 µM [1]: 102% | inhibition at 10 µM [2]: 100%
Structure (SMILES): CCC1c2ccc(CN(C)C)n2CCN1C(=O)COCC1CCCCN1S(=O)(=O)c1c(C)cc(C)cc1C (centres unmarked) [(54), 1-(6-((dimethylamino)methyl)-1-ethyl-3,4-dihydropyrrolo[1,2-a]pyrazin-2(1H)-yl)-2-((1-(mesitylsulfonyl)piperidin-2-yl)methoxy)ethanone]

inhibition at 10 µM [1]: 78% | inhibition at 10 µM [2]: 102%
Structure (SMILES): O=C(CC1CCCCN1S(=O)(=O)c1cccc(C(F)(F)F)c1)N1CCn2cc(CCc3ccncc3)nc2C1 (centres unmarked) [(116), 1-(2-(2-(pyridin-4-yl)ethyl)-5,6-dihydroimidazo[1,2-a]pyrazin-7(8H)-yl)-2-(1-(3-(trifluoromethyl)phenylsulfonyl)piperidin-2-yl)ethanone]

More lines, now with the values behind:

Structure (SMILES): COc1cc(C)c(S(=O)(=O)N2CCCCC2COCC(=O)N2CCn3cccc3C2c2cccc(F)c2)c(C)c1 (centres unmarked) [(28), 1-(1-(3-fluorophenyl)-3,4-dihydropyrrolo[1,2-a]pyrazin-2(1H)-yl)-2-((1-(4-methoxy-2,6-dimethylphenylsulfonyl)piperidin-2-yl)methoxy)ethanone]
inhibition at 10 µM [1]: 98% | inhibition at 10 µM [2]: 98%

Structure (SMILES): Cc1cc(C)c(S(=O)(=O)N2CCCCC2COCC(=O)N2CCn3c(CN(C)C)ccc3C2Cc2ccccc2)c(C)c1 (centres unmarked) [(50), 1-(1-benzyl-6-((dimethylamino)methyl)-3,4-dihydropyrrolo[1,2-a]pyrazin-2(1H)-yl)-2-((1-(mesitylsulfonyl)piperidin-2-yl)methoxy)ethanone]
inhibition at 10 µM [1]: 100% | inhibition at 10 µM [2]: 102%

Structure (SMILES): Cc1cc(C)c(S(=O)(=O)N2CCCCC2COCC(=O)N2CCn3cccc3C2c2cccs2)c(C)c1 (centres unmarked) [(43), 2-((1-(mesitylsulfonyl)piperidin-2-yl)methoxy)-1-(1-(thiophen-2-yl)-3,4-dihydropyrrolo[1,2-a]pyrazin-2(1H)-yl)ethanone]
inhibition at 10 µM [1]: 96% | inhibition at 10 µM [2]: 98%

Structure (SMILES): COc1cc(C)c(S(=O)(=O)N2CCCCC2COCC(=O)N2CCn3cc(CN4CCCCC4)nc3C2)c(C)c1 (centres unmarked) [(2), 2-((1-(4-methoxy-2,6-dimethylphenylsulfonyl)piperidin-2-yl)methoxy)-1-(2-(piperidin-1-ylmethyl)-5,6-dihydroimidazo[1,2-a]pyrazin-7(8H)-yl)ethanone]
inhibition at 10 µM [1]: 105% | inhibition at 10 µM [2]: 106%

Structure (SMILES): Cc1cc(C)c(S(=O)(=O)N2CCCCC2COCC(=O)N2CCn3c(CN(C)C)ccc3C2c2cccs2)c(C)c1 (centres unmarked) [(53), 1-(6-((dimethylamino)methyl)-1-(thiophen-2-yl)-3,4-dihydropyrrolo[1,2-a]pyrazin-2(1H)-yl)-2-((1-(mesitylsulfonyl)piperidin-2-yl)methoxy)ethanone]
inhibition at 10 µM [1]: 92% | inhibition at 10 µM [2]: 102%

Structure (SMILES): Cc1cc(C)c(S(=O)(=O)N2CCCCC2COCC(=O)N2CCn3cccc3C2C(C)(C)C)c(C)c1 (centres unmarked) [(33), 1-(1-tert-butyl-3,4-dihydropyrrolo[1,2-a]pyrazin-2(1H)-yl)-2-((1-(mesitylsulfonyl)piperidin-2-yl)methoxy)ethanone]
inhibition at 10 µM [1]: 98% | inhibition at 10 µM [2]: 100%

Structure (SMILES): Cc1cc(S(=O)(=O)N2CCCCC2CCC(=O)N2CCn3c(CN4CCOCC4)ccc3C2)c(C)cc1Cl (centres unmarked) [(12), 3-(1-(4-chloro-2,5-dimethylphenylsulfonyl)piperidin-2-yl)-1-(6-(morpholino-methyl)-3,4-dihydropyrrolo[1,2-a]pyrazin-2(1H)-yl)propan-1-one]
inhibition at 10 µM [1]: 103% | inhibition at 10 µM [2]: 57%

Structure (SMILES): COc1ccc(C2c3cccn3CCN2C(=O)COCC2CCCCN2S(=O)(=O)c2c(C)cc(C)cc2C)cc1 (centres unmarked) [(38), 2-((1-(mesitylsulfonyl)piperidin-2-yl)methoxy)-1-(1-(4-methoxyphenyl)-3,4-dihydropyrrolo[1,2-a]pyrazin-2(1H)-yl)ethanone]
inhibition at 10 µM [1]: 90% | inhibition at 10 µM [2]: 99%

Structure (SMILES): COc1cc(C)c(S(=O)(=O)N2CCCCC2COCC(=O)N2CCn3c(CN4CCCC4)ccc3C2)c(C)c1 (centres unmarked) [(13), 2-((1-(4-methoxy-2,6-dimethylphenylsulfonyl)piperidin-2-yl)methoxy)-1-(6-(pyrrolidin-1-ylmethyl)-3,4-dihydropyrrolo[1,2-a]pyrazin-2(1H)-yl)ethanone]
inhibition at 10 µM [1]: 102% | inhibition at 10 µM [2]: 102%

Structure (SMILES): COc1cc(C)c(S(=O)(=O)N2CCCCC2COCC(=O)N2CCn3cccc3C2c2ccccc2)c(C)c1 (centres unmarked) [(25), 2-((1-(4-methoxy-2,6-dimethylphenylsulfonyl)piperidin-2-yl)methoxy)-1-(1-phenyl-3,4-dihydropyrrolo[1,2-a]pyrazin-2(1H)-yl)ethanone]
inhibition at 10 µM [1]: 99% | inhibition at 10 µM [2]: 97%
